According to patent publication US20260272801A1, “BIOCATALYTIC SYNTHESIS OF UNNATURAL MYCOSPORINE-LIKE AMINO ACIDS” (University of Florida Research Foundation, Incorporated, priority 2022, published 2026):
“Also recorded” adds a separate entry of the source.

How the values were obtained:
MysD = test: In vitro MysD reaction with amino acid substrates (LC-HRMS detection of MAA products); format: biochemical, Nostoc linckia NIES-25; settings: 5 mM amino acid, 50 uM mycosporine-glycine, 5 mM ATP, 0.5 uM MysD, pH 8.0, room temperature, 4 hours
Protocol: The reaction solution contained 50 mM HEPES, pH 8.0, 10 mM MgCl2, 50 uM mycosporine-glycine (MG), 5 mM amino acid substrates, and 5 mM ATP. The reactions were initiated by adding 0.5 uM MysD and then carried out at room temperature for 4 hours. The reactions were then terminated and centrifuged.
In Vitro MysD Reactions. MG was purified from extracts of E. coli expressing MysAB2C by HPLC and used as the substrate for the MysD reactions. The quality of MG was calculated based on its extinction coefficient (28,100 M^−1cm^−1). The MysD reactions included MG (50 μM), Mg^2+ (10 mM), unnatural amino acid substrates (5 mM), and ATP (5 mM) in 50 mM HEPES, pH 8.0. The reactions were initiated by adding MysD (0.5 μM) and then incubated at room temperature for 4 hours. All reactions were quenched by heat inactivation at 95° C. for 10 min. After centrifugation at 20,000×g for 15 min, the clear supernatants were collected for LC-HRMS analysis.
The reactions were terminated and then analyzed in the HPLC and/or LC-MS analysis.
HPLC and LC-MS Analysis. Samples were analyzed on a Shimadzu Prominence UHPLC system (Kyoto, Japan) coupled with a PDA detector. Unless stated elsewhere, the following HPLC procedure was performed. The compounds were separated on a Phenomenex Luna C8 column (4.6×250 mm, 5 μm) using the following HPLC program: 2% B for 15 min, 2-90% B gradient in 2 min, 90% B in 2 min, 90-2% in 2 min, and re-equilibration in 2% B for 6 min. The A phase was water with 0.1% formic acid and the B phase was methanol. The flow rate was set at 0.5 mL/min. LC-HRMS and HRMS/MS experiments were conducted on a Thermo Scientific Q Exactive Focus mass spectrometer with a Dionex Ultimate RSLC 3000 uHPLC system, equipped with the H-ESI II probe on an Ion Max API Source. Methanol (B)/water (A) containing 0.1% formic acid were used as mobile phases. The eluents from the first 3 min were diverted to waste by a diverting valve. MS1 signals were acquired under the Full MS positive ion mode, covering a mass range of m/z 150-2000, with resolution at 35 000 and AGC target at 1×10^6.

[1] = cited from earlier work

| Structure (SMILES) | use as amino acid substrate by MysD to produce MAA products (MysD) | other results |
| --- | --- | --- |
| NC[C@@H](N)C(=O)O [(R)-2,3-diaminopropionic acid] | not able to take |  |
| NC[C@H](N)C(=O)O [(S)-2,3-diaminopropionic acid] | could be used by MysD |  |
| C=C[C@H](N)C(=O)O [(S)-2-aminobut-3-enoic acid] | could be used by MysD |  |
| C[C@@H](O)[C@H](N)C(=O)O [L-threonine] | could be used by MysD; also recorded: best substrate |  |
| COC1=C(NCC(=O)O)C[C@@](O)(CO)CC1=O [MG, mycosporine-glycine] |  | extinction coefficient ([1]; used to calculate the quantity of MG): 28,100 M^−1cm^−1 |
| COC1=C(NCC(=O)O)C[C@@](O)(CO)CC1=N[C@H](C(=O)O)[C@@H](C)O [porphyra-334] |  | maximal absorption wavelength ([1]; natural MAA given as comparison value): 334 nm |
